US20240207236A1, “COMPOUND FOR PREVENTING OR TREATING DIABETES” (ONCOCROSS CO., LTD., priority 2021, published 2024)

Legend:
Type in all cases: in vivo, mice (C57BL/6)
[1] = Body weight of mice in STZ-induced insulin-resistant diabetes model
Experimental: (§1) STZ (Sigma-aldrich, S0130, 40 mg/kg b.w., in 0.1 M citrate buffer pH 4.5) was intraperitoneally administered to 9-week-old male mice (C57BL/6) once/1 day for 5 days to perform a first disease induction. After 7 weeks of the first induction, a second induction was performed using the same method as the first induction. For 5 days of an STZ administration period for the first induction, 10% sucrose was administered as drinking water. In addition, after 14 days of the second administration, blood sugar was confirmed to confirm the induction rate, and the induced animals were separated into groups. Experimental substances (R)-4-{(R)-1-[7-(3,4,5-trimethoxy-phenyl)-[1,6] naphthyridine-5-yloxy]-ethyl}pyrrolidine-2-one (BI-1002494) and cromolyn (OC-101) were administered orally into the stomach at 10 mL/kg using an oral administration syringe (sonde) before 16:00 daily for 12 weeks at a frequency of 7 days/week at doses shown in Table 1 below, respectively, and dexamethasone was orally administered as a positive control substance.

[2] = Drinking water intake of mice in STZ-induced insulin-resistant diabetes model; design: unit not given here
Experimental: as §1

[3] = tested on: animal model of insulin-resistant diabetes; experiment: Blood sugar, tail vein blood, blood sugar meter, 4 h fasting; design: blood sugar, Mean: unit not given here
Experimental: as §1
Before disease induction, excluding week 9 of administration of experimental substances to mice in each group of Example 1 above, after 2 weeks after the first induction (based on a first administration date), and after 6 weeks and 2 weeks of the second induction (based on the first administration date), blood was collected from the tail vein and blood sugar was measured using a blood sugar meter (Accu-Check, Roche), and fasting was performed for 4 hours from 9:30 a.m. to 1:30 p.m.

[4] = tested on: animal model of insulin-resistant diabetes; experiment: Blood biochemistry, automated analyzer, at end of observation
Experimental: as §1
(§2) After the observation period for mice of each group in Example 1 was terminated, all surviving animals were fasted in the same manner as when measuring blood sugar, and then anesthetized by inhaling isoflurane, and blood was collected from the abdominal vena cava through laparotomy. After the blood collection was completed, the veins and arteries were cut under anesthesia and exsanguinated. The collected blood was left at room temperature for 30 minutes or more and then centrifuged at 3,000 rpm for 20 minutes. Thereafter, glucose, blood urea nitrogen (BUN), and creatinine were analyzed using an automated blood biochemistry analyzer (Hitachi 3100, Hitachi Co. Ltd., Japan). Indoxyl sulfate (a substance that was mainly produced in the intestines to cause kidney damage, and a substance that caused end-stage renal failure by advancing kidney function damage in patients with renal failure during hemodialysis) was analyzed using LC MS/MS. In addition, blood insulin was analyzed according to a method represented by a commercial Mouse Insulin ELISA KIT (#AKRIN-011T, Sibayagi Co. Ltd., Japan).

[5] = tested on: animal model of insulin-resistant diabetes; experiment: Histopathological change of liver, kidney and pancreas (H&E); settings: count in group of 10 animals
Experimental: as §1
At the end of the observation period, the mice in each group of Example 1 were confirmed to be dead, and the liver, kidney, and pancreas were extracted and fixed with 10% neutral buffered formalin (NBF) in at least 20 times the tissue volume. The fixed tissue was sectioned to a thickness of approximately 4 mm and then produced into a paraffin block through general tissue processing and embedding processes. Thereafter, the tissue was sectioned to a thickness of 4 μm using a rotary microtome, and then H&E staining was performed, and histopathological changes were observed.

[6] = Feed intake of mice in STZ-induced insulin-resistant diabetes model; design: feed intake: unit not given here; settings: 50 mg/kg/day oral
Experimental: as §1

[7] = tested on: animal model of insulin-resistant diabetes; experiment: Blood insulin (Mouse Insulin ELISA) and HOMA-IR; settings: 50 mg/kg
Experimental: as §1, §2

[8] = tested on: animal model of insulin-resistant diabetes; experiment: Blood indoxyl sulfate by LC MS/MS; settings: 50 mg/kg/day oral, 12 weeks
Experimental: as §1, §2

[9] = 50 mg/kg/day oral, 12 weeks, blood

## C[C@@H]1C[C@H]2[C@@H]3CCC4=CC(=O)C=C[C@]4(C)[C@@]3(F)[C@@H](O)C[C@]2(C)[C@@]1(O)C(=O)CO [Dexamethasone, reference compound]
[1]; 2 mg/kg/day oral, week 0
  body weight, Mean: 24 g
[1]; 2 mg/kg/day oral, week 1
  body weight, Mean: 23.5 g
[1]; 2 mg/kg/day oral, week 2
  body weight, Mean: 23.6 g
[1]; 2 mg/kg/day oral, week 3
  body weight, Mean: 23.6 g
[1]; 2 mg/kg/day oral, week 4
  body weight, Mean: 23.6 g
[1]; 2 mg/kg/day oral, week 5
  body weight, Mean: 23.7 g
[1]; 2 mg/kg/day oral, week 6
  body weight, Mean: 23.6 g
[1]; 2 mg/kg/day oral, week 7
  body weight, Mean: 23.8 g
[1]; 2 mg/kg/day oral, week 9
  body weight, Mean: 23.3 g
[2]; 2 mg/kg/day oral, week 0
  drinking water intake, Mean: 7.07
[2]; 2 mg/kg/day oral, week 1
  drinking water intake, Mean: 7.73
[2]; 2 mg/kg/day oral, week 2
  drinking water intake, Mean: 7.05
[2]; 2 mg/kg/day oral, week 3
  drinking water intake, Mean: 7.89
[2]; 2 mg/kg/day oral, week 4
  drinking water intake, Mean: 7.69
[2]; 2 mg/kg/day oral, week 5
  drinking water intake, Mean: 7.10
[2]; 2 mg/kg/day oral, week 6
  drinking water intake, Mean: 7.35
[2]; 2 mg/kg/day oral, week 7
  drinking water intake, Mean: 7.18
[2]; 2 mg/kg/day oral, week 8
  drinking water intake, Mean: 7.83
[2]; 2 mg/kg/day oral, week 9
  drinking water intake, Mean: 7.45
[2]; 2 mg/kg/day oral, week 10
  drinking water intake, Mean: 7.19
[3]; 2 mg/kg/day oral, value column 2 of 6, head prints only weeks 0, 4, 8, 10
  blood sugar, Mean: 309.1
[3]; 2 mg/kg/day oral, value column 3 of 6, head prints only weeks 0, 4, 8, 10
  blood sugar, Mean: 329.2
[3]; 2 mg/kg/day oral, value column 4 of 6, head prints only weeks 0, 4, 8, 10
  blood sugar, Mean: 336.9
[3]; 2 mg/kg/day oral, value column 6 of 6, head prints only weeks 0, 4, 8, 10
  blood sugar, Mean: 331.4
[3]; 2 mg/kg/day oral, week 0
  blood sugar, Mean: 307.1
[4]; 2 mg/kg/day oral, 12 weeks, blood
  T-CHO, Mean: 139.0 dL⁻¹
[5]; 2 mg/kg (G3)
  Kidney Medullar apoptosis: 1
  Kidney Medullar mineralization: 2
  Kidney NHL: 6
  Kidney bowman's capsule hyperplasia: 2
  Kidney pappillary mineralization: 0
  Liver Apoptosis: 4
  Liver Cytoplasmic glycogen: 0
  Liver Eosinophlic focus of cellular alteration: 3
  Liver Mononuclear cell infiltrate: 0
  Liver NHL: 5
  Pancrease Apoptosis: 0
  Pancrease NHL: 8
  Pancrease islet degeneration: 1
  Pancrease islet hypertrophy: 0
  Pancrease islet, mononuclear cell infillitrate: 1

## O=C(O)c1cc(=O)c2c(OCC(O)COc3cccc4oc(C(=O)O)cc(=O)c34)cccc2o1 [OC-101, cromolyn, reference compound]
[1]; 50 mg/kg/day oral, week 0
  body weight, Mean: 23.9 g
[1]; 50 mg/kg/day oral, week 1
  body weight, Mean: 23.4 g
[1]; 50 mg/kg/day oral, week 2
  body weight, Mean: 23.5 g
[1]; 50 mg/kg/day oral, week 3
  body weight, Mean: 23.3 g
[1]; 50 mg/kg/day oral, week 4
  body weight, Mean: 23.5 g
[1]; 50 mg/kg/day oral, week 5
  body weight, Mean: 23.4 g
[1]; 50 mg/kg/day oral, week 6
  body weight, Mean: 23.5 g
[1]; 50 mg/kg/day oral, week 7
  body weight, Mean: 23.4 g
[1]; 50 mg/kg/day oral, week 8
  body weight, Mean: 23.2 g
[1]; 50 mg/kg/day oral, week 9
  body weight, Mean: 23 g
[6]; week 3
  feed intake: 5.47
[6]; week 4
  feed intake: 4.26
[6]; week 6
  feed intake: 4.29
[6]; week 9
  feed intake: 4.51
[2]; 50 mg/kg/day oral, week 0
  drinking water intake, Mean: 6.78
[2]; 50 mg/kg/day oral, week 1
  drinking water intake, Mean: 6.11
[2]; 50 mg/kg/day oral, week 2
  drinking water intake, Mean: 7.68
[2]; 50 mg/kg/day oral, week 3
  drinking water intake, Mean: 6.99
[2]; 50 mg/kg/day oral, week 4
  drinking water intake, Mean: 7.23
[2]; 50 mg/kg/day oral, week 5
  drinking water intake, Mean: 6.76
[2]; 50 mg/kg/day oral, week 6
  drinking water intake, Mean: 7.60
[2]; 50 mg/kg/day oral, week 7
  drinking water intake, Mean: 7.06
[2]; 50 mg/kg/day oral, week 8
  drinking water intake, Mean: 7.17
[2]; 50 mg/kg/day oral, week 9
  drinking water intake, Mean: 7.09
[2]; 50 mg/kg/day oral, week 10
  drinking water intake, Mean: 6.76
[3]; 50 mg/kg/day oral, value column 2 of 6, head prints only weeks 0, 4, 8, 10
  blood sugar, Mean: 336.8
[3]; 50 mg/kg/day oral, week 0
  blood sugar, Mean: 200.9
[4]; 50 mg/kg
  GLU compared to the disease control group: decreased statistically significantly
[4]; [9]
  ALT, Mean: 31.3 L⁻¹
  AST, Mean: 34.0 L⁻¹
  T-CHO, Mean: 24.2 dL⁻¹
[7]
  HOMA-IR compared with the disease control group: decreased statistically significantly
[8]
  Indoxyl sulfate, Mean: 0.8 µg/mL
[5]; 50 mg/kg (G6, G7)
  Kidney Medullar apoptosis: 0
  Kidney Medullar mineralization: 1
  Kidney NHL: 8
  Kidney bowman's capsule hyperplasia: 1
  Kidney pappillary mineralization: 0
  Liver Apoptosis: 2
  Liver Cytoplasmic glycogen: 0
  Liver Eosinophlic focus of cellular alteration: 1
  Liver Mononuclear cell infiltrate: 3
  Liver NHL: 5
  Pancrease Apoptosis: 0
  Pancrease NHL: 6
  Pancrease islet degeneration: 2
  Pancrease islet hypertrophy: 2
  Pancrease islet, mononuclear cell infillitrate: 1
